Test results: patent publication US20100069417A1, “NOVEL PHENYL(4-PHENYLPYRIMIDIN-2-YL)AMINE DERIVATIVES, THEIR PREPARATION, AS MEDICAMENTS, PHARMACEUTICAL COMPOSITIONS AND IN PARTICULAR AS IKK INHIBITORS” (SANOFI-AVENTIS, priority 2007, published 2010)

`CNC1CCN(S(=O)(=O)c2ccc(Nc3nccc(-c4ccc(F)cc4)n3)cc2)CC1` [Example 1, [4-(4-Fluorophenyl)pyrimidin-2-yl][4-(4-(methylamino)piperidin-1-ylsulphonyl)phenyl]amine] gave a melting point of 202.9 °C.
With `CN(CCS(C)(=O)=O)C1CCN(S(=O)(=O)c2ccc(Nc3nccc(-c4ccc(F)cc4)n3)cc2)CC1` [Example 2, [4-(4-Fluorophenyl)pyrimidin-2-yl]-(4-{4-[(2-(methylsulphonyl)ethyl)(methyl)amino]piperidin-1-ylsulphonyl}phenyl)amine] the melting point was 166.5 °C.
Work on `CN(Cc1ncc[nH]1)C1CCN(S(=O)(=O)c2ccc(Nc3nccc(-c4ccc(F)cc4)n3)cc2)CC1` [Example 3, [4-(4-Fluorophenyl)pyrimidin-2-yl]-(4-{4-[(1H-imidazol-2-ylmethyl) (methyl)amino]piperidin-1-ylsulphonyl}phenyl) amine] yielded a melting point of 140 °C.
With `CN(C1CCNCC1)S(=O)(=O)c1ccc(Nc2nccc(-c3ccc(F)cc3)n2)cc1` [Example 4, 4-[4-(4-Fluorophenyl)pyrimidin-2-ylamino]-N-methyl-N-(piperidin-4-yl)benzenesulphonamide] the melting point was 115.6 °C.
Molecule `NCCN(C1CCN(Cc2ccccc2)CC1)S(=O)(=O)c1ccc(Nc2nccc(-c3ccc(F)cc3)n2)cc1` [Example 5, N-(2-Aminoethyl)-N-(1-benzylpiperidin-4-yl)-4-[4-(4-fluorophenyl)-pyrimidin-2-ylamino]benzenesulphonamide] has a melting point of 194.4 °C.
